# Source: ChEMBL document CHEMBL5029167, “Development of Asialoglycoprotein-Mediated Hepatocyte-Targeting Antitumor Prodrugs Triggered by Glutathione” (J Med Chem, 2021)
# Activity calls are given as the source filed them. The rule behind the calls is not given here.
# What was measured:
# HepG2 [1] = assay: Inhibition of colony formation in human HepG2 cells after 7 days by crystal violet staining based inverted microscopic analysis; type: functional, cell-based; settings: time 7.0 day
# HepG2 [2] = assay: Induction of apoptosis in human HepG2 cells assessed as viable cells at 6 uM measured after 24 hrs by annexinV-FITC/propidium iodide double staining based flow cytometric analysis (reference value: 93.6 %); type: functional; settings: read-out: Activity
# HepG2 [3] = assay: Induction of apoptosis in human HepG2 cells assessed as early apoptotic cells at 6 uM measured after 24 hrs by annexinV-FITC/propidium iodide double staining based flow cytometric analysis (reference value: 6.3 %); type: functional
# HepG2 [4] = assay: Induction of apoptosis in human HepG2 cells assessed as late apoptotic cells at 6 uM measured after 24 hrs by annexinV-FITC/propidium iodide double staining based flow cytometric analysis (reference value: 0.1 %); type: functional
# HepG2 [5] = assay: Induction of apoptosis in human HepG2 cells assessed as viable cells at 9 uM measured after 24 hrs by annexinV-FITC/propidium iodide double staining based flow cytometric analysis (reference value: 93.6 %); type: functional; settings: read-out: Activity
# HepG2 [6] = assay: Induction of apoptosis in human HepG2 cells assessed as early apoptotic cells at 9 uM measured after 24 hrs by annexinV-FITC/propidium iodide double staining based flow cytometric analysis (reference value: 6.3 %); type: functional
# HepG2 [7] = assay: Induction of apoptosis in human HepG2 cells assessed as late apoptotic cells at 9 uM measured after 24 hrs by annexinV-FITC/propidium iodide double staining based flow cytometric analysis (reference value: 0.1 %); type: functional
# HepG2 [8] = assay: Induction of apoptosis in human HepG2 cells assessed as viable cells at 12 uM measured after 24 hrs by annexinV-FITC/propidium iodide double staining based flow cytometric analysis (reference value: 93.6 %); type: functional; settings: read-out: Activity
# HepG2 [9] = assay: Induction of apoptosis in human HepG2 cells assessed as early apoptotic cells at 12 uM measured after 24 hrs by annexinV-FITC/propidium iodide double staining based flow cytometric analysis (reference value: 6.3 %); type: functional
# HepG2 [10] = assay: Induction of apoptosis in human HepG2 cells assessed as late apoptotic cells at 12 uM measured after 24 hrs by annexinV-FITC/propidium iodide double staining based flow cytometric analysis (reference value: 0.1 %); type: functional
# HepG2 [11] = assay: Cell cycle arrest in human HepG2 cells assessed as accumulation at G0/G1 phase at 2 uM measured after 24 hrs by propidium iodide staining based flow cytometric analysis (reference value: 55.27%); type: functional
# HepG2 [12] = assay: Cell cycle arrest in human HepG2 cells assessed as accumulation at S phase at 2 uM measured after 24 hrs by propidium iodide staining based flow cytometric analysis (reference value: 37.10%); type: functional
# HepG2 [13] = assay: Cell cycle arrest in human HepG2 cells assessed as accumulation at G2/M phase at 2 uM measured after 24 hrs by propidium iodide staining based flow cytometric analysis (reference value: 7.63%); type: functional
# HepG2 [14] = assay: Cell cycle arrest in human HepG2 cells assessed as accumulation at G0/G1 phase at 4 uM measured after 24 hrs by propidium iodide staining based flow cytometric analysis (reference value: 55.27%); type: functional
# HepG2 [15] = assay: Cell cycle arrest in human HepG2 cells assessed as accumulation at S phase at 4 uM measured after 24 hrs by propidium iodide staining based flow cytometric analysis (reference value: 37.10%); type: functional
# HepG2 [16] = assay: Cell cycle arrest in human HepG2 cells assessed as accumulation at G2/M phase at 4 uM measured after 24 hrs by propidium iodide staining based flow cytometric analysis (reference value: 7.63%); type: functional
# HepG2 [17] = assay: Cell cycle arrest in human HepG2 cells assessed as accumulation at G0/G1 phase at 8 uM measured after 24 hrs by propidium iodide staining based flow cytometric analysis (reference value: 55.27%); type: functional
# HepG2 [18] = assay: Cell cycle arrest in human HepG2 cells assessed as accumulation at S phase at 8 uM measured after 24 hrs by propidium iodide staining based flow cytometric analysis (reference value: 37.10%); type: functional
# HepG2 [19] = assay: Cell cycle arrest in human HepG2 cells assessed as accumulation at G2/M phase at 8 uM measured after 24 hrs by propidium iodide staining based flow cytometric analysis (reference value: 7.63%); type: functional
# HepG2 [20] = assay: Cytotoxicity against human HepG2 cells at 2 to 10 uM after 48 hrs by MTT assay; type: functional, cell-based; settings: HepG2, 48 h
# [21] = Drug uptake in human A549 cells at 10 uM after 15 mins by confocal scanning microscopic analysis; type: ADME, cell-based; settings: a549, 0.25 h
# [22] = Drug uptake in human HeLa cells at 10 uM after 15 mins by confocal scanning microscopic analysis; type: ADME, cell-based; settings: 0.25 h
# [23] = Drug uptake in human SGC-7901 cells at 10 uM after 15 mins by confocal scanning microscopic analysis; type: ADME, cell-based; settings: sgc-7901, 0.25 h
# [24] = Drug uptake in human HepG2 cells at 10 uM after 15 mins by confocal scanning microscopic analysis; type: ADME, cell-based; settings: hepg2, 0.25 h
# [25] = Drug distribution in Kunming mouse heart at 3.5 mg/kg, iv measured after 3 hrs by confocal scanning microscopic analysis; type: ADME, organism-based; settings: in vivo
# [26] = Drug distribution in Kunming mouse lung at 3.5 mg/kg, iv measured after 3 hrs by confocal scanning microscopic analysis; type: ADME, organism-based; settings: in vivo
# [27] = Drug distribution in Kunming mouse spleen at 3.5 mg/kg, iv measured after 3 hrs by confocal scanning microscopic analysis; type: ADME, organism-based; settings: in vivo
# [28] = Drug distribution in Kunming mouse kidney at 3.5 mg/kg, iv measured after 3 hrs by confocal scanning microscopic analysis; type: ADME, organism-based; settings: in vivo
# [29] = Drug distribution in Kunming mouse liver at 3.5 mg/kg, iv measured after 3 hrs by confocal scanning microscopic analysis; type: ADME, organism-based; settings: in vivo
# HepG2 [30] = assay: Inhibition of cell migration in human HepG2 cells after 24 hrs by crystal violet staining based inverted microscopic analysis; type: functional
# HepG2 [31] = assay: Induction of morphological changes in human HepG2 cells assessed as chromatin condensation incubated for 24 hrs by Hoechst 33342 staining based analysis; type: functional, cell-based
# HepG2 [32] = assay: Induction of morphological changes in human HepG2 cells assessed as chromatin fragmentation incubated for 24 hrs by Hoechst 33342 staining based analysis; type: functional, cell-based
# HepG2 [33] = assay: Induction of apoptosis in human HepG2 cells assessed as necrotic cells at 6 uM measured after 24 hrs by annexinV-FITC/propidium iodide double staining based flow cytometric analysis (reference value: 0.0 %); type: functional
# HepG2 [34] = assay: Induction of apoptosis in human HepG2 cells assessed as necrotic cells at 9 uM measured after 24 hrs by annexinV-FITC/propidium iodide double staining based flow cytometric analysis (reference value: 0.0 %); type: functional
# HepG2 [35] = assay: Induction of apoptosis in human HepG2 cells assessed as necrotic cells at 12 uM measured after 24 hrs by annexinV-FITC/propidium iodide double staining based flow cytometric analysis (reference value: 0.0 %); type: functional
# HepG2 [36] = assay: Induction of apoptosis in human HepG2 cells assessed as upregulation of caspase 3 protein expression at 2 to 8 uM after 24 hrs; type: functional, cell-based; settings: dose 2-8 µM
# H22 [37] = assay: Antitumor activity against mouse H22 cells implanted in Kunming mouse assessed as tumor growth inhibition at 3.5 mg/kg measured on day 7; type: functional; parameters: scale not given: the % may be the effect or the level left; settings: time 7 day
# [38] = Toxicity in Kunming mouse implanted with mouse H22 cells assessed as change in body weight at 3.5 mg/kg after 7 days; type: organism-based; settings: in vivo, 168 h, time 7 day
# [39] = Toxicity in Kunming mouse implanted with mouse H22 cells assessed as change in organ weight at 3.5 mg/kg after 7 days; type: organism-based; settings: in vivo, 168 h, time 7 day
# [40] = Drug uptake in human HepG2 cells pretreated with galactose for 30 mins followed by compound addition and measured after 15 mins by confocal scanning microscopic analysis; type: ADME, cell-based; settings: hepg2, 0.75 h, time 45 min
# [41] = Drug distribution in Kunming mouse liver at 6 mg/kg, iv measured after 3 hrs by confocal scanning microscopic analysis; type: ADME, organism-based; settings: in vivo
# H22 [42] = assay: Antitumor activity against mouse H22 cells implanted in Kunming mouse assessed as tumor growth inhibition at 0.8 mg/kg measured on day 7; type: functional; parameters: scale not given: the % may be the effect or the level left; settings: time 7 day
# [43] = Toxicity in Kunming mouse implanted with mouse H22 cells assessed as change in body weight at 0.8 mg/kg after 7 days; type: organism-based; settings: in vivo, 168 h, time 7 day
# [44] = Toxicity in Kunming mouse implanted with mouse H22 cells assessed as change in organ weight at 0.8 mg/kg after 7 days; type: organism-based; settings: in vivo, 168 h, time 7 day
smiles,measurement,setting,value
C=C[C@]1(C)CC[C@@H](C(=C)Cn2cc(CN3C(=O)c4cccc5c(N6CCNCC6)ccc(c45)C3=O)nn2)C[C@H]1C(=C)C,inhibition,HepG2 [1],Dose-Dependent Effect
same,viability at 6 µM,HepG2 [2],51.5%
same,Activity,HepG2 [3],46.5%
same,Activity,HepG2 [4],1.9%
same,viability at 9 µM,HepG2 [5],9.7%
same,Activity,HepG2 [6],89.4%
same,Activity,HepG2 [7],0.9%
same,viability at 12 µM,HepG2 [8],4.7%
same,Activity,HepG2 [9],94.9%
same,Activity,HepG2 [10],0.3%
same,Activity,HepG2 [11],63.46%
same,Activity,HepG2 [12],29.93%
same,Activity,HepG2 [13],6.61%
same,Activity,HepG2 [14],64.24%
same,Activity,HepG2 [15],30.47%
same,Activity,HepG2 [16],5.29%
same,Activity,HepG2 [17],71.44%
same,Activity,HepG2 [18],21.81%
same,Activity,HepG2 [19],67.4%
same,IC50,HepG2 [20],6.11 µM
same,Drug uptake,[21],Not Active
same,Drug uptake,[22],Not Active
same,Drug uptake,[23],Not Active
same,Drug uptake,[24],Not Active
same,Drug uptake,[25],Not Active
same,Drug uptake,[26],Not Active
same,Drug uptake,[27],Not Active
same,Drug uptake,[28],Not Active
same,Drug uptake,[29],Not Active
same,inhibition,HepG2 [30],Dose-Dependent Effect
same,Activity,HepG2 [31],Active
same,Activity,HepG2 [32],Active
same,Activity,HepG2 [33],0%
same,Activity,HepG2 [34],0%
same,Activity,HepG2 [35],0%
same,Activity,HepG2 [36],Active
same,Activity,H22 [37],33.65%
same,Activity,[38],Non-Toxic
same,Activity,[39],Non-Toxic
C=C[C@]1(C)CC[C@@H](C(=C)Cn2cc(CN3C(=O)c4cccc5c(N6CCN(C(=O)OCCSSCCOCc7cn([C@@H]8O[C@H](CO)[C@H](O)[C@H](O)[C@H]8O)nn7)CC6)ccc(c45)C3=O)nn2)C[C@H]1C(=C)C,Drug uptake,[21],Active
same,Drug uptake,[22],Active
same,Drug uptake,[23],Active
same,Drug uptake,[24],Active
same,Drug uptake,[40],Not Active
same,Drug uptake,[41],Active
O=c1[nH]cc(F)c(=O)[nH]1 [FLUOROURACIL],Activity,H22 [42],26.41%
same,Activity,[43],Non-Toxic
same,Activity,[44],Non-Toxic
